The source of these data is patent US10174037B2, “Dihydropyrazolopyrimidinone compounds as PDE2 inhibitors” (Merck Sharp & Dohme Corp., priority 2015, dated 2019).

Where two headings read alike, the source gives them in different places.

For one test, the target named is Rhesus PDE2A3 (Macaca mulatta, UniProt B3VTJ2). In words: PDE2 fluorescence polarization (IMAP FP) assay, rhesus PDE2A3. In kind it is biochemical, rhesus macaque. (Fluorescence polarisation rises when a labelled molecule tumbles more slowly, as on binding a larger partner.)
In a further test the target is human PDE2A1 (Homo sapiens (Human), UniProt O00408). In words: PDE selectivity IMAP FP assay, human PDE2A1. The class given is biochemical. The following applies: Human PDE2. An outline of the steps: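 IMAP fluorescence polarization assay; PDE2 substrate 50 nM FAM-cAMP containing 1000 nM cGMP, enzyme diluted for 20% substrate conversion, in 10 mM Tris HCl pH 7.2, 10 mM MgCl2, 1 mM DTT. Reaction 60 min at room temperature, stopped with IMAP binding solution; polarization read after 1 h. Ki reported.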

Setting [1] is: Lab A, read-out: Rhesus PDE2 Ki (nM) Lab A.
Setting [2] is: Lab A, read-out: Human PDE2 Ki (nM) Lab A.
Where [3] appears, read: Lab B, read-out: Rhesus PDE2 Ki (nM) Lab B.
Where [4] appears, read: Lab B, read-out: Human PDE2 Ki (nM) Lab B.

Rhesus PDE2A3, sequence (B3VTJ2 1-941): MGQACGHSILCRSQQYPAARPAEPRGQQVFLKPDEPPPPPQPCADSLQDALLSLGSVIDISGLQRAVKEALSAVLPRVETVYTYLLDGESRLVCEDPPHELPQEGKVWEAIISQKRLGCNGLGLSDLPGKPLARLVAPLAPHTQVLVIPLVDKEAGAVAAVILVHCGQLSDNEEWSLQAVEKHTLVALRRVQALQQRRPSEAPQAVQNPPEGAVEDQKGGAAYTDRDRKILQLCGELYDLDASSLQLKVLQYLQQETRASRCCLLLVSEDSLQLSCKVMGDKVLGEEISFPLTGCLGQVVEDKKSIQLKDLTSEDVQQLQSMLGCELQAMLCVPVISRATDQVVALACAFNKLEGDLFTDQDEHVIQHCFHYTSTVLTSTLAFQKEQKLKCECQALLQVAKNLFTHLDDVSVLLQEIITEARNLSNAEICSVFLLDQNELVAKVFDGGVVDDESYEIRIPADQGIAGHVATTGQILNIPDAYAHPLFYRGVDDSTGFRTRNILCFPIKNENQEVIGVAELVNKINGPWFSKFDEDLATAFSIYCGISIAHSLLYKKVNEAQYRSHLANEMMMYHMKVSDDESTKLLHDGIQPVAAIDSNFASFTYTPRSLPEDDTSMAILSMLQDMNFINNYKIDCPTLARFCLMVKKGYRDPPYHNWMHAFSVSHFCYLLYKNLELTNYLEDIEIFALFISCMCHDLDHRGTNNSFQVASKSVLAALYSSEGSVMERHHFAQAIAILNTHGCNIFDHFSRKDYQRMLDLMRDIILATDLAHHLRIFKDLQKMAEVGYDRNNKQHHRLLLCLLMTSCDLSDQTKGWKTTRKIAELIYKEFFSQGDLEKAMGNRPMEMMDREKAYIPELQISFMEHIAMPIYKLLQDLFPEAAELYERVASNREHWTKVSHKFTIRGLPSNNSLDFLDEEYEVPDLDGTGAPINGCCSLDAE
human PDE2A1, sequence (O00408 other isoform, or with tags, fused parts or gaps): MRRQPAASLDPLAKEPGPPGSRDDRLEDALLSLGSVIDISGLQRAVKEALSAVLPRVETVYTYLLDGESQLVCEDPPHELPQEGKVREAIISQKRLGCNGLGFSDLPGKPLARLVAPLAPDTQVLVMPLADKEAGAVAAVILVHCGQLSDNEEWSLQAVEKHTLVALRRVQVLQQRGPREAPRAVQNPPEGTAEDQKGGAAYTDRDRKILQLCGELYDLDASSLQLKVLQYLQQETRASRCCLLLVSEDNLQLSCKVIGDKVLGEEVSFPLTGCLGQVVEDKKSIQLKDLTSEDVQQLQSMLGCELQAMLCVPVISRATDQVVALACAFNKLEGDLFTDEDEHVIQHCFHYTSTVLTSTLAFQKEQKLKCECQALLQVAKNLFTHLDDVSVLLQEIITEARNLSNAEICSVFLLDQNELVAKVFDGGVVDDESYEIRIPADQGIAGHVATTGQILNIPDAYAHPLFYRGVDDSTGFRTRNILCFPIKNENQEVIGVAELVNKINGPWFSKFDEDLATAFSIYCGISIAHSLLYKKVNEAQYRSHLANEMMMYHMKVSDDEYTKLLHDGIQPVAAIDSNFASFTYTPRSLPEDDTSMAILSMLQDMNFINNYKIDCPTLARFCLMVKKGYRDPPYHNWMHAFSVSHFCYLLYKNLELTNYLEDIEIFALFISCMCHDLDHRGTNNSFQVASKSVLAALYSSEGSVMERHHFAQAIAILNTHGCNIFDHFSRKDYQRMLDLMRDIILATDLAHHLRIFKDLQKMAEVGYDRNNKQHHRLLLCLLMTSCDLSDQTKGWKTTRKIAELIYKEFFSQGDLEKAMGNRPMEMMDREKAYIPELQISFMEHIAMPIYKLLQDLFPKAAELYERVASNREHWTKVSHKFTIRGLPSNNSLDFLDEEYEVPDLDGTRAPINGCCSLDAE

One may read the Ki as a dissociation constant, usually derived from enzyme kinetics or from competition with a known ligand. With `Cc1nn(C(C)c2ccc(OC(F)(F)F)cc2)c2nc(O)[nH]c(=O)c12` (stereo not drawn) [Example 60, 6-Hydroxy-3-methyl-1-{1-[4-(trifluoromethoxy)phenyl]ethyl}-1,5-dihydro-4H-pyrazolo[3,4-d]pyrimidin-4-one], the values for the Ki at Rhesus PDE2A3 (setting [1]) and on human PDE2A1 (setting [2]) were 278 nM and 207 nM, respectively.

In the case of `CNc1nc2c(c(C)nn2C(C)c2ccc(C(F)(F)F)cc2)c(=O)[nH]1` (stereo not drawn) [Example 269, 3-Methyl-6-(methylamino)-1-(1-(4-(trifluoromethyl)phenyl)ethyl)-1,5-dihydro-4H-pyrazolo[3,4-d]pyrimidin-4-one], the Ki stood at 139 nM at Rhesus PDE2A3 (setting [1]) and 85 nM on human PDE2A1 (setting [2]).

As for `CN(C)c1nc2c(c(CF)nn2C(c2ccc(C(C)(F)F)cc2)C2CC2)c(=O)[nH]1` (single isomer, unassigned) [Example 213, (S)- or (R)-1-(Cyclopropyl(4-(1,1-difluoroethyl)phenyl)methyl)-6-(dimethylamino)-3-(fluoromethyl)-1H-pyrazolo[3,4-d]pyrimidin-4(5H)-one], the Ki came out at 0.075 nM at Rhesus PDE2A3 (setting [3]) and 0.053 nM on human PDE2A1 (setting [4]).

`CC(C)C(c1ccc(C(F)(F)F)c(F)c1)n1nc(CO)c2c(=O)[nH]c(N(C)C)nc21` (single isomer, unassigned) [Example 143, (S)- or (R)-6-(Dimethylamino)-1-(1-(3-fluoro-4-(trifluoromethyl)phenyl)-2-methylpropyl)-3-(hydroxymethyl)-1H-pyrazolo[3,4-d]pyrimidin-4(5H)-one]: the Ki at Rhesus PDE2A3 (setting [3]) was 0.063 nM; at human PDE2A1 (setting [4]) it was 0.068 nM.

For the compound `CC(C)c1ccc(C(C2CC2)n2nc(CO)c3c(=O)[nH]c(N(C)C)nc32)cc1` (single isomer, unassigned) [Example 76, (R)- or (S)-1-(Cyclopropyl(4-isopropylphenyl)methyl)-6-(dimethylamino)-3-(hydroxymethyl)-1H-pyrazolo[3,4-d]pyrimidin-4(5H)-one], the Ki amounted to 0.21 nM on Rhesus PDE2A3 (setting [3]) and 0.22 nM on human PDE2A1 (setting [4]).

Take `CC(C)C(c1ccc(C(F)(F)F)cc1F)n1nc(CO)c2c(=O)[nH]c(N(C)C)nc21` (single isomer, unassigned) [Example 132, (R)- or (S)-6-(Dimethylamino)-1-(1-(2-fluoro-4-(trifluoromethyl)phenyl)-2-methylpropyl)-3-(hydroxymethyl)-1H-pyrazolo[3,4-d]pyrimidin-4(5H)-one]: the values for the Ki at Rhesus PDE2A3 (setting [3]) and at human PDE2A1 (setting [4]) were 0.059 nM and 0.04 nM, respectively.

Take `CC(C)C(c1ccc(C(F)(F)F)cc1)n1nc(C(F)F)c2c(=O)[nH]c(O)nc21` (single isomer, unassigned) [Example 282, (S)- or (R)-3-(Difluoromethyl)-6-hydroxy-1-(2-methyl-1-(4-(trifluoromethyl)phenyl)propyl)-1H-pyrazolo[3,4-d]pyrimidin-4(5H)-one]: the figures for the Ki at Rhesus PDE2A3 (setting [3]) and at human PDE2A1 (setting [4]) were 51 nM and 59 nM, respectively.

Regarding `CC(C)c1ccc(C(C2CC2)n2nc(CO)c3c(=O)[nH]c(N(C)C)nc32)cc1` (single isomer, unassigned) [Example 77, (S)- or (R)-1-(Cyclopropyl(4-isopropxlphenyl)methyl)-6-(dimethylamino)-3-(hydroxymethyl)-1H-pyrazolo[3,4-d]pyrimidin-4(5H)-one], the Ki on Rhesus PDE2A3 (setting [3]) is 0.084 nM; at human PDE2A1 (setting [4]), 0.069 nM.

Turning to `C[C@H](c1ccc(C(F)(F)F)c(F)c1)n1nc(CF)c2c(=O)[nH]c(O)nc21` (mixture of isomers) [Example 34, (R)- and (S)-1-(1-(3-Fluoro-4-(trifluoromethyl)phenyl)ethyl)-3-(fluoromethyl)-6-hydroxy-H-pyrazolo[3,4-d]pyrimidin-4(5H)-one], the values for the Ki at Rhesus PDE2A3 (setting [3]) and at human PDE2A1 (setting [4]) were 2.4 nM and 2.1 nM, respectively.

On to `CN(C)c1nc2c(c(CO)nn2C(c2ccc(C(C)(F)F)cc2)C2CC2)c(=O)[nH]1` (single isomer, unassigned) [Example 140, (R)- or (S)-1-(Cyclopropyl(4-(1,1-difluoroethyl)phenyl)methyl)-6-(dimethylamino)-3-(hydroxymethyl)-1H-pyrazolo[3,4-d]pyrimidin-4(5H)-one], for which the Ki on Rhesus PDE2A3 (setting [3]) stood at 0.097 nM; on human PDE2A1 (setting [4]), 0.07 nM.

For the compound `CC(C)C(c1ccc(C(C)(F)F)cc1)n1nc(CF)c2c(=O)[nH]c(N(C)C)nc21` (single isomer, unassigned) [Example 206, (R)- or (S)-l-(1-(4-(1,1-Difluoroethyl)phenyl)-2-methylpropyl)-6-(dimethylamino)-3-(fluoromethyl)-1H-pyrazolo[3,4-d]pyrimidin-4(5H)-one], the inhibition constant (Ki) at Rhesus PDE2A3 (setting [3]) came to 0.51 nM; at human PDE2A1 (setting [4]) it was 0.37 nM.

On to `CC(C)C(c1ccc(C(F)(F)F)c(F)c1)n1nc(CF)c2c(=O)[nH]c(O)nc21` (single isomer, unassigned) [Example 56], for which the Ki was determined as 36 nM at Rhesus PDE2A3 (setting [3]) and 37 nM on human PDE2A1 (setting [4]).

Turning to `CC(c1ccc(OC(F)(F)F)c(F)c1)n1nc(CF)c2c(=O)[nH]c(N(C)C)nc21` (single isomer, unassigned) [Example 167, (S)- or (R)-6-(Dimethylamino)-1-(1-(3-fluoro-4-(trifluoromethoxy)phenyl)ethyl)-3-(fluoromethyl)-1H-pyrazolo[3,4-d]pyrimidin-4(5H)-one], the Ki on Rhesus PDE2A3 (setting [3]) turned out to be 0.18 nM; on human PDE2A1 (setting [4]) it was 0.2 nM.

With `CCC(c1ccc(C(F)(F)F)c(F)c1)n1nc(CO)c2c(=O)[nH]c(N(C)C)nc21` (single isomer, unassigned) [Example 145, (S)- or (R)-6-(Dimethylamino)-1-(1-(3-fluoro-4-(trifluoromethyl)phenyl)propyl)-3-(hydroxymethyl)-1H-pyrazolo[3,4-d]pyrimidin-4(5H)-one], the values for the Ki at Rhesus PDE2A3 (setting [3]) and on human PDE2A1 (setting [4]) were 0.13 nM and 0.11 nM, respectively.

As to `CN(C)c1nc2c(c(CF)nn2C(c2ccc(C(F)(F)F)c(F)c2)C2CC2)c(=O)[nH]1` (single isomer, unassigned) [Example 181, (S)- or (R)-1-(Cyclopropyl(3-fluoro-4-(trifluoromethyl)phenyl)methyl)-6-(dimethylamino)-3-(fluoromethyl)-1H-pyrazolo[3,4-d]pyrimidin-4(5H)-one], the Ki stood at 0.11 nM on Rhesus PDE2A3 (setting [3]) and 0.058 nM at human PDE2A1 (setting [4]).

Turning to `CC1(C(c2ccc(C(F)(F)F)cc2)n2nc(CC(F)(F)F)c3c(=O)[nH]c(O)nc32)CC1` (single isomer, unassigned) [Example 244, (R)- or (S)-6-Hydroxy-1-((1-methylcyclopropyl)(4-(trifluoromethyl)phenyl)methyl)-3-(2,2,2-trifluoroethyl)-1H-pyrazolo[3,4-d]pyrimidin-4(5H)-one], the Ki at Rhesus PDE2A3 (setting [3]) and on human PDE2A1 (setting [4]) was 21 nM throughout.

For `CC(C)C(c1ccc(OC(F)F)cc1)n1nc(CF)c2c(=O)[nH]c(N(C)C)nc21` (single isomer, unassigned) [Example 184, (R)- or (S)-1-(1-(4-(Difluoromethoxy)phenyl)-2-methylpropyl)-6-(dimethylamino)-3-(fluoromethyl)-1H-pyrazolo[3,4-d]pyrimidin-4(5H)-one], the inhibition constant (Ki) at Rhesus PDE2A3 (setting [3]) stood at 0.24 nM; at human PDE2A1 (setting [4]) it was 0.19 nM.

As for `CCC(c1ccc(C(F)(F)F)cc1F)n1nc(CF)c2c(=O)[nH]c(N(C)C)nc21` (single isomer, unassigned) [Example 198, (R)- or (S)-6-(Dimethylamino)-1-(1-(2-fluoro-4-(trifluoromethyl)phenyl)propyl)-3-(fluoromethyl)-1H-pyrazolo[3,4-d]pyrimidin-4(5H)-one], the Ki on Rhesus PDE2A3 (setting [3]) is 0.068 nM; at human PDE2A1 (setting [4]) it was 0.048 nM.

As to `CC(C)c1ccc(C(C(C)C)n2nc(CO)c3c(=O)[nH]c(N(C)C)nc32)cc1` (single isomer, unassigned) [Example 78, (R)- or (S)-6-(Dimethylamino)-3-(hydroxymethyl)-1-(1-(4-isopropylphenyl)-2-methylpropyl)-1H-pyrazolo[3,4-d]pyrimidin-4(5H)-one], the figures for the Ki on Rhesus PDE2A3 (setting [3]) and on human PDE2A1 (setting [4]) were 0.14 nM and 0.11 nM, respectively.

As to `CC(c1ccc(OC(F)(F)F)cc1)n1nc(CF)c2c(=O)[nH]c(N(C)C)nc21` (single isomer, unassigned) [Example 164, (R)- or (S)-6-(Dimethylammo)-3-(fluoromethyl)-1-(1-(4-(trifluoromethoxy)phenyl)ethyl)-1H-pyrazolo[3,4-d]pyrimidin-4(5H)-one], the Ki at Rhesus PDE2A3 (setting [3]) turned out to be 2 nM; on human PDE2A1 (setting [4]) it was 1.7 nM.

In the case of `O=c1[nH]c(O)nc2c1c(CC(F)(F)F)nn2C(c1ccc(OC(F)(F)F)c(F)c1)C1CC1` (single isomer, unassigned) [Example 252, (R)- or (S)-1-(Cyclopropyl(3-fluoro-4-(trifluoromethoxy)phenyl)methyl)-6-hydroxy-3-(2,2,2-trifluoroethyl)-1H-pyrazolo[3,4-d]pyrimidin-4(5H)-one], the Ki at Rhesus PDE2A3 (setting [3]) was found to be 68 nM; at human PDE2A1 (setting [4]) it was 73 nM.

On to `O=c1[nH]c(O)nc2c1c(CF)nn2[C@H](c1ccc(C(F)(F)F)c(F)c1)C1CC1` [Example 48, (S)-1-(Cyclopropyl(3-fluoro-4-(lrifluoromethyl)phenyl)methyl)-3-(fluoromethyl)-6-hydroxy-1H-pyrazolo[3,4-d]pyrimidin-4(5H)-one], for which the Ki at Rhesus PDE2A3 (setting [3]) came out at 6.2 nM; on human PDE2A1 (setting [4]), 5.6 nM.

Take `CC(C)C(c1ccc(C(F)(F)F)cc1)n1nc(CO)c2c(=O)[nH]c(O)nc21` (single isomer, unassigned) [Example 13, (S)- or (R)-6-Hydroxy-3-(hydroxymethyl)-1-(2-methyl-1-(4-(trifluoromethyl)phenyl)propyl)-1H-pyazolo[3,4-d]pyrimidin-4(5H)-one]: the figures for the Ki on Rhesus PDE2A3 (setting [3]) and on human PDE2A1 (setting [4]) were 9.2 nM and 8.3 nM, respectively.

Turning to `CC(c1ccc(C(F)(F)F)c(F)c1)n1nc(C(F)F)c2c(=O)[nH]c(O)nc21` (single isomer, unassigned) [Example 278, (S)- or (R)-3-(Difluoromethyl)-1-(1-(3-fluoro-4-(trifluoromethyl)phenyl)ethyl)-6-hydroxy-1H-pyrazolo[3,4-d]pyrimidin-4(5H)-one], the Ki came out at 1.2 nM on Rhesus PDE2A3 (setting [3]) and 1.6 nM at human PDE2A1 (setting [4]).
